# Legend:
# Format in all cases: cell-based, mouse
# MIN6 cells [1] = assay: Ki67 proliferation staining of MIN6 cells; conditions: 1.6 μM propargite vs DMSO, 4 days
# Description: Cells were fixed with 10% (v/v) formalin for 20 min at room temperature (RT) and blocked in a solution of Mg^2+- and Ca^2+-free PBS containing 5% horse serum and 0.3% Triton-X for 1 h at room temperature and followed by incubation with primary antibody at 4 °C overnight. The following primary antibodies and dilutions have been used in this study: goat anti-SOX17 (1:500, R&D system, AF1924), rabbit anti-FOXA2 (1:500, Upstate, 07-633), goat anti-PDX1 (1:500, R&D system, AF2419), mouse anti-NKX6.1 (1:100; BCBC, Ab2024), guinea pig anti-INS (1:1000, Dako, A0564), guinea pig anti-GLUCAGON (1:500, Linco, 4031), mouse anti-Ki67 (1:100, Life technologies, 556003), mouse anti-AMYLASE (1:100, Santa Cruz, sc-46657), rabbit anti-Active Caspase-3 (1:500, BD Bioscience, 559565), mouse anti-Troponin T (1:500, Thermo Scientific, MA5-12960), mouse anti-Actin, Cardiac (1:300, Sigma, A9357), rabbit anti-TUJ1 (1:500, Covance, MRB-435P), Chicken anti-MAP2 (1:1000, Abcam, Ab5392), mouse anti-HuC/D (1:500, Invitrogen, A-21271), mouse anti-MAP2 (1:1500, Sigma, M1406), rabbit anti-TH (1:500, Pel freeze, P40101-0), rat-anti-CTIP2 (1:500, Abcam, ab18465), goat anti-FOXA2 (1:200, R&D, 463783). Donkey anti-guinea pig, mouse, goat, rabbit or chicken secondary antibodies conjugated with Alexa-Fluor-488, Alexa-Fluor-594 or Alexa-Fluor-647 fluorophore (1:500, Life technologies) were used. […]
# MIN6 cells [2] = assay: Apoptosis analysis (Annexin V flow cytometry, active caspase-3 staining); conditions: immunocytochemistry, 1.6 µM
# Description: Cells were fixed with 10% (v/v) formalin for 20 min at room temperature (RT) and blocked in a solution of Mg^2+- and Ca^2+-free PBS containing 5% horse serum and 0.3% Triton-X for 1 h at room temperature and followed by incubation with primary antibody at 4 °C overnight. […]
# Cells were dissociated by Accutase (Stem Cells) and washed with cold DPBS and then detected with FITC Annexin V Apoptosis Detection Kit I (BD Bioscience, 556547), and analyzed within 1 h by FACSVantage SE (Becton Dickinson). […]
# (§1) cells. (b, c) Flow cytometry analysis (b) and quantification (c) of the percentage of […]
# (§2) Etoposide was used as a positive control. Values presented as mean±S.D. (d, e) Immunocytochemistry analysis (d) and quantification (e) of the percentage of Active Caspase-3+ cells in 1.6 µM propargite treated MIN6 cells (n=3). […]
# MIN6 cells [3] = assay: Autophagy marker LC3-II western blotting; conditions: 0.8 µM or 1.6 µM propargite
# Description: To extract intracellular protein, cells were placed on ice, washed twice with ice-cold PBS and lysed immediately with RIPA buffer (Life Technologies, 89900) supplemented with a protease inhibitor cocktail (Life Technologies, 78440). Cell lysates were then sonicated and the soluble fraction was collected after centrifugation. Protein amount was quantified by the BCA protein assay (Life Technologies, 23227). To extract extracellular HMGB1, tissue culture media were collected and concentrated using Afyon SDS-PAGE sample preparation kit (advansta, K-02101-025). 20 μg of total protein for each sample was mixed with loading buffer and incubated for 5 min at 95 °C before being loaded into NuPAGE® Novex® 4–12% […] Protein Gels (Life Technologies, NP0321BOX) for electrophoresis. Separated proteins were transferred to a PVDF membrane (Millipore, IPSN07852) after electrophoresis. […] ECL signals were developed and detected using the SuperSignal™ West Femto Maximum Sensitivity Substrate (Life Technologies, 34094) and a C-DiGit Chemiluminescent Western Blot Scanner (LI-COR). […]
# as §1, §2
substance,measurement,setting,value
2-(4-tert-butylphenoxy)-cyclohexyl prop-2-yne-1-sulfonate [propargite],percentage of Ki67+/INS+ cells,MIN6 cells [1],No significant difference
same,caspase-3 activation,MIN6 cells [2],nor caspase-3 activation
same,relative levels of LC3-II,MIN6 cells [3],no significant increase
